The first assay has as its system NCI-H1793. Put plainly: relative viability (nuclei count vs DMSO), 5 days (fraction); higher = more cells survive. To be noted: first compound 2.53 µM. The method, boiled down:
(§1)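 Relative viability divides the nuclei count in treated wells by that in vehicle wells. Lung cancer cell lines were seeded in 1536-well plates, dosed by pin tool the next day, and fixed and stained after 5 days in one step with final 0.05% Triton X-100, 1% formaldehyde and 1 ug/ml Hoechst. Dosing was a single drug or a fixed anchor-drug dose plus five library-drug doses (not always all listed) in √10 steps, and values are medians of duplicate plates imaged at 4×.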
`Nc1cccc2c1CN(C1CCC(=O)NC1=O)C2=O` (stereo not given) [Lenalidomide] + CC(=O)c1c(C)c2cnc(Nc3ccc(N4CCNCC4)cn3)nc2n(C2CCCC2)c1=O [Palbociclib] (partner 0.5 µM) registered a relative viability of 0.296.

Staying with this assay, now noted: first compound 8 µM.
As to `Nc1cccc2c1CN(C1CCC(=O)NC1=O)C2=O` (stereo not given) [Lenalidomide] + CCNC(=O)c1noc(-c2cc(C(C)C)c(O)cc2O)c1-c1ccc(CN2CCOCC2)cc1 [Luminespib] (partner 0.01 µM), the relative viability is 0.165.
On the same count and under the same terms, for `Nc1cccc2c1CN(C1CCC(=O)NC1=O)C2=O` (stereo not given) [Lenalidomide] + Nc1ncn([C@H]2C[C@H](O)[C@@H](CO)O2)c(=O)n1 [Decitabine] (partner 2 µM) the value was 0.44.
Still for that read-out and setting: for `Nc1cccc2c1CN(C1CCC(=O)NC1=O)C2=O` (stereo not given) [Lenalidomide] + Cc1nc(Nc2ncc(C(=O)Nc3c(C)cccc3Cl)s2)cc(N2CCN(CCO)CC2)n1 [Dasatinib] (partner 0.075 µM) the value was 0.212; for `Nc1cccc2c1CN(C1CCC(=O)NC1=O)C2=O` (stereo not given) [Lenalidomide] + N=C(N)NC(=N)NCCc1ccccc1 [Phenformin] (partner 250 µM), 0.344; for `Nc1cccc2c1CN(C1CCC(=O)NC1=O)C2=O` (stereo not given) [Lenalidomide] + CC(=O)c1c(C)c2cnc(Nc3ccc(N4CCNCC4)cn3)nc2n(C2CCCC2)c1=O [Palbociclib] (partner 0.5 µM), 0.256.

The next assay relates to NCI-H2126. The assay is described as above. Particulars: first compound 0.253 µM. The method, boiled down: as §1
Regarding `Nc1cccc2c1CN(C1CCC(=O)NC1=O)C2=O` (stereo not given) [Lenalidomide] + CCNC(=O)c1noc(-c2cc(C(C)C)c(O)cc2O)c1-c1ccc(CN2CCOCC2)cc1 [Luminespib] (partner 0.01 µM), the relative viability worked out at 0.915.
In turn, `Nc1cccc2c1CN(C1CCC(=O)NC1=O)C2=O` (stereo not given) [Lenalidomide] + Nc1ncn([C@H]2C[C@H](O)[C@@H](CO)O2)c(=O)n1 [Decitabine] (partner 2 µM) showed a relative viability of 0.645.
Regarding `Nc1cccc2c1CN(C1CCC(=O)NC1=O)C2=O` (stereo not given) [Lenalidomide] + Cc1nc(Nc2ncc(C(=O)Nc3c(C)cccc3Cl)s2)cc(N2CCN(CCO)CC2)n1 [Dasatinib] (partner 0.075 µM), the relative viability amounted to 0.661.
For `Nc1cccc2c1CN(C1CCC(=O)NC1=O)C2=O` (stereo not given) [Lenalidomide] + N=C(N)NC(=N)NCCc1ccccc1 [Phenformin] (partner 250 µM), the relative viability is 0.552.
The molecule `Nc1cccc2c1CN(C1CCC(=O)NC1=O)C2=O` (stereo not given) [Lenalidomide] + CC(=O)c1c(C)c2cnc(Nc3ccc(N4CCNCC4)cn3)nc2n(C2CCCC2)c1=O [Palbociclib] (partner 0.5 µM) showed a relative viability of 0.359.

Staying with this assay, now noted: first compound 0.8 µM.
Take `Nc1cccc2c1CN(C1CCC(=O)NC1=O)C2=O` (stereo not given) [Lenalidomide] + CCNC(=O)c1noc(-c2cc(C(C)C)c(O)cc2O)c1-c1ccc(CN2CCOCC2)cc1 [Luminespib] (partner 0.01 µM): the relative viability is 0.935.
Same read-out and setting: for `Nc1cccc2c1CN(C1CCC(=O)NC1=O)C2=O` (stereo not given) [Lenalidomide] + Nc1ncn([C@H]2C[C@H](O)[C@@H](CO)O2)c(=O)n1 [Decitabine] (partner 2 µM) the value was 0.611.
Turning to `Nc1cccc2c1CN(C1CCC(=O)NC1=O)C2=O` (stereo not given) [Lenalidomide] + Cc1nc(Nc2ncc(C(=O)Nc3c(C)cccc3Cl)s2)cc(N2CCN(CCO)CC2)n1 [Dasatinib] (partner 0.075 µM), the relative viability came out at 0.559.
On the same count and under the same terms, the result for `Nc1cccc2c1CN(C1CCC(=O)NC1=O)C2=O` (stereo not given) [Lenalidomide] + N=C(N)NC(=N)NCCc1ccccc1 [Phenformin] (partner 250 µM) reads 0.517.
On the same count and under the same terms, the result for `Nc1cccc2c1CN(C1CCC(=O)NC1=O)C2=O` (stereo not given) [Lenalidomide] + CC(=O)c1c(C)c2cnc(Nc3ccc(N4CCNCC4)cn3)nc2n(C2CCCC2)c1=O [Palbociclib] (partner 0.5 µM) reads 0.383.

The same assay, now with this note: first compound 2.53 µM.
Consider `Nc1cccc2c1CN(C1CCC(=O)NC1=O)C2=O` (stereo not given) [Lenalidomide] + CCNC(=O)c1noc(-c2cc(C(C)C)c(O)cc2O)c1-c1ccc(CN2CCOCC2)cc1 [Luminespib] (partner 0.01 µM), for which the relative viability was 0.996.
On to `Nc1cccc2c1CN(C1CCC(=O)NC1=O)C2=O` (stereo not given) [Lenalidomide] + Nc1ncn([C@H]2C[C@H](O)[C@@H](CO)O2)c(=O)n1 [Decitabine] (partner 2 µM), for which the relative viability is 0.578.
As for `Nc1cccc2c1CN(C1CCC(=O)NC1=O)C2=O` (stereo not given) [Lenalidomide] + Cc1nc(Nc2ncc(C(=O)Nc3c(C)cccc3Cl)s2)cc(N2CCN(CCO)CC2)n1 [Dasatinib] (partner 0.075 µM), the relative viability turned out to be 0.678.
Same read-out and setting: for `Nc1cccc2c1CN(C1CCC(=O)NC1=O)C2=O` (stereo not given) [Lenalidomide] + N=C(N)NC(=N)NCCc1ccccc1 [Phenformin] (partner 250 µM) the value was 0.531.
Still for that read-out and setting: for `Nc1cccc2c1CN(C1CCC(=O)NC1=O)C2=O` (stereo not given) [Lenalidomide] + CC(=O)c1c(C)c2cnc(Nc3ccc(N4CCNCC4)cn3)nc2n(C2CCCC2)c1=O [Palbociclib] (partner 0.5 µM) the value was 0.328.

Still in this assay, the particulars now being: first compound 8 µM.
Molecule `Nc1cccc2c1CN(C1CCC(=O)NC1=O)C2=O` (stereo not given) [Lenalidomide] + CCNC(=O)c1noc(-c2cc(C(C)C)c(O)cc2O)c1-c1ccc(CN2CCOCC2)cc1 [Luminespib] (partner 0.01 µM) gave a relative viability of 0.871.
Molecule `Nc1cccc2c1CN(C1CCC(=O)NC1=O)C2=O` (stereo not given) [Lenalidomide] + Nc1ncn([C@H]2C[C@H](O)[C@@H](CO)O2)c(=O)n1 [Decitabine] (partner 2 µM) returned a relative viability of 0.516.
The same measure, in the same setting: for `Nc1cccc2c1CN(C1CCC(=O)NC1=O)C2=O` (stereo not given) [Lenalidomide] + Cc1nc(Nc2ncc(C(=O)Nc3c(C)cccc3Cl)s2)cc(N2CCN(CCO)CC2)n1 [Dasatinib] (partner 0.075 µM) the value was 0.479.
Same read-out and setting: for `Nc1cccc2c1CN(C1CCC(=O)NC1=O)C2=O` (stereo not given) [Lenalidomide] + N=C(N)NC(=N)NCCc1ccccc1 [Phenformin] (partner 250 µM) the value was 0.458.
`Nc1cccc2c1CN(C1CCC(=O)NC1=O)C2=O` (stereo not given) [Lenalidomide] + CC(=O)c1c(C)c2cnc(Nc3ccc(N4CCNCC4)cn3)nc2n(C2CCCC2)c1=O [Palbociclib] (partner 0.5 µM): the relative viability is 0.332.

Another assay relates to EMC-BAC-2. Described as above. Particulars: first compound 0.253 µM. The method, boiled down:
as §1
With `Nc1cccc2c1CN(C1CCC(=O)NC1=O)C2=O` (stereo not given) [Lenalidomide] + CCNC(=O)c1noc(-c2cc(C(C)C)c(O)cc2O)c1-c1ccc(CN2CCOCC2)cc1 [Luminespib] (partner 0.01 µM), the relative viability was 1.22.
The same measure, in the same setting: the result for `Nc1cccc2c1CN(C1CCC(=O)NC1=O)C2=O` (stereo not given) [Lenalidomide] + Nc1ncn([C@H]2C[C@H](O)[C@@H](CO)O2)c(=O)n1 [Decitabine] (partner 2 µM) reads 0.998; that for `Nc1cccc2c1CN(C1CCC(=O)NC1=O)C2=O` (stereo not given) [Lenalidomide] + Cc1nc(Nc2ncc(C(=O)Nc3c(C)cccc3Cl)s2)cc(N2CCN(CCO)CC2)n1 [Dasatinib] (partner 0.075 µM), 0.319.
In the case of `Nc1cccc2c1CN(C1CCC(=O)NC1=O)C2=O` (stereo not given) [Lenalidomide] + N=C(N)NC(=N)NCCc1ccccc1 [Phenformin] (partner 250 µM), the relative viability is 0.527.

(Values after the supplement of paper PMC10307832.)
